Counter-ions that a name gives are not always drawn. Like-named read-outs stand apart in the source and are kept apart here.
Key:
[1] = Bioavailability after oral administration; format: in vivo
[2] = Water solubility / ionisation at physiological pH; format: physicochemical

Structure (SMILES): Cn1cc(-c2ccc3c(c2)ncn3-c2cc(NS(=O)(=O)C3CC3)cc(-c3ccc(F)cc3F)c2)cn1 [Compound (I), N-(2′,4′-difluoro-5-(5-(1-methyl-1H-pyrazol-4-yl)-1H-benzo[d]imidazol-1-yl)-[1,1′-biphenyl]-3-yl)cyclopropanesulfonamide]
- bioavailability after oral administration [1]: very low
- solubility in water ([2]; physiological pH range): practically insoluble
- ionisation state ([2]; within the physiological pH range): neutral

Structure (SMILES): Cn1cc(-c2ccc3c(c2)ncn3-c2cc(NS(=O)(=O)C3CC3)cc(-c3ccc(F)cc3F)c2)cn1 [Compound (I) HCl salt, hydrochloride salt of N-(2′,4′-difluoro-5-(5-(1-methyl-1H-pyrazol-4-yl)-1H-benzo[d]imidazol-1-yl)-[1,1′-biphenyl]-3-yl)cyclopropanesulfonamide]
- bioavailability after oral administration ([1]; listed as Hydrochloride salt forms of compound (I)): improved
- water solubility of the salt form ([2]; hydrochloride salt forms compared with compound (I)): enhanced

Source: patent US20230119355A1, “PHARMACEUTICAL COMPOSITIONS OF A KINASE INHIBITOR” (AURIGENE DISCOVERY TECHNOLOGIES LIMITED, priority 2020, published 2023)
